From patent publication US20250000989A1, “PYRROLO BENZODIAZEPINE DERIVATIVE, AND CONJUGATE, PREPARATION METHOD AND USE THEREOF” (priority 2021, published 2025)

Key:
Test in all cases: Inhibition of in vitro proliferation of tumor cells by PBD compounds (CTG)
Assay type in all cases: cell-based
[1] = system: NCI-H23 (human non-small cell lung cancer cells); settings: 144 h, 6 days of culture
Method: (§1) The objective of this assay is to measure the activity of the compounds of the present disclosure in inhibiting the proliferation of different tumor cell lines: SK-BR-3 tumor cells (human breast cancer cells, ATCC, Cat. No. HTB-30), NCI-H23 (human non-small cell lung cancer cells, Nanjing Cobioer, Cat. No. CBP60132), and MKN45 (human gastric cancer cells, Nanjing Cobioer, Cat. No. CBP60488). The cells were treated in vitro with different concentrations of the compounds. After 6 days of culture, the proliferation of the cells was measured using CTG (CellTiter-Glo® Luminescent Cell Viability Assay, Promega, Cat. No. G7573) reagent, and the in vitro activity of the compounds was evaluated based on their IC50 values.
(§2) • 1. Cell culture: SK-BR-3, NCI-H23, and MKN45 cells were separately cultured in McCoy's 5A medium (ThermoFisher, Cat. No. 16600108) and RPMI 1640 medium (ThermoFisher, Cat. No. 11875119) containing 10% FBS (Gibco, 10099-141). • 2. Cell plating: After being digested with trypsin (0.25% Trypsin-EDTA (1×), Life Technologies, Cat. No. 25200-072), the SK-BR-3, NCI-H23, and MKN45 were resuspended in their respective media and counted. The density was adjusted to 1.48×10^4 cells/mL, and the cells were plated onto 96-well plates (corning, Cat. No. 3903) at 135 μL/well, i.e., 2000 cells/well, and cultured at 37° C. for 24 h. • 3. Drug formulation: PBD drugs were formulated in round-bottom 96-well plates. Plate 1: In the first column, the concentration was 0.05 mM; in the second column through the fourth column, a 3-fold serial dilution was performed in DMSO; in the fifth column through the sixth column, a 5-fold serial dilution was performed in DMSO; in the seventh column through the ninth column, a 10-fold serial dilution was performed in DMSO; and the tenth column contained DMSO. Plate 2: Corresponding media were added to the first column through the tenth column at 196 μL/well; 4 μL of solution was transferred from each well of the first column through the tenth column of plate 1 to plate 2 and well mixed with the medium; 15 μL of the mixture was added to the cells plated the day before, and the cells were cultured at 37° C. for another 6 days. • 4. CTG assay: The cell culture plates were taken out and equilibrated to room temperature. CTG was added at 75 μL/well, and the plates were incubated at room temperature in the dark for 10 min. Then luminescence values were measured on a microplate reader (BMG labtech, PHERAstar FS).

[2] = system: SK-BR-3 tumor cells (human breast cancer cells); settings: 144 h, 6 days of culture
Method: as §1, §2

[3] = system: MKN45 (human gastric cancer cells); settings: MKN-45, 144 h, 6 days of culture
Method: as §1, §2

SMILES	IC50 [1] [nM]	IC50 [2] [nM]	IC50 [3] [nM]
COc1ccc(C2=CN3C(=O)c4cc(OC)c(OCCOCCOc5cc6c(cc5OC)C(=O)N5CC7(CC7)C[C@H]5C=N6)cc4NC[C@@H]3C2)cc1 [2-26, (S)-7-Methoxy-8-(2-(2-(((S)-7-methoxy-2-(4-methoxyphenyl)-5-oxo-5,10,11,11a-tetrahydro-1H-benzo[e]pyrrolo[1,2-a][1,4]diazepin-8-yl)oxy)ethoxy)ethoxy)-1,11a-dihydro-3H,5H-spiro[benzo[e]pyrrolo[1,2-a][1,4]diazepine-2,1′-cyclopropan]-5-one]	2.98	2.12	2.42
COc1ccc(C2=CN3C(=O)c4cc(OC)c(OCCCCCOc5cc6c(cc5OC)C(=O)N5CC7(CC7)C[C@H]5CN6)cc4NC[C@@H]3C2)cc1 [2-27, (S)-7-Methoxy-8-((5-(((S)-7-methoxy-2-(4-methoxyphenyl)-5-oxo-5,10,11,11a-tetrahydro-1H-benzo[e]pyrrolo[1,2-a][1,4]diazepin-8-yl)oxy)pentyl)oxy)-1,10,11,11a-tetrahydro-3H,5H-spiro[benzo[e]pyrrolo[1,2-a][1,4]diazepine-2,1′-cyclopropan]-5-one]	7.28	5	7.51
COc1ccc(C2=CN3C(=O)c4cc(OC)c(OCc5cncc(COc6cc7c(cc6OC)C(=O)N6CC8(CC8)C[C@H]6C=N7)c5)cc4NC[C@@H]3C2)cc1 [2-29]	0.02	0.08	0.02
COc1cc2c(cc1OCCCCCOc1cc3c(cc1OC)C(=O)N1C=C(c4ccc(N5CCN(CCO)CC5)cc4)C[C@H]1CN3)N=C[C@@H]1CC3(CC3)CN1C2=O [2-30, (S)-8-((5-(((S)-2-(4-(4-(2-Hydroxyethyl)piperazin-1-yl)phenyl)-7-methoxy-5-oxo-5,10,11,11a-tetrahydro-1H-benzo[e]pyrrolo[1,2-a][1,4]diazepin-8-yl)oxy)pentyl)oxy)-7-methoxy-1,11a-dihydro-3H,5H-spiro[benzo[e]pyrrolo[1,2-a][1,4]diazepine-2,1′-cyclopropan]-5-one]	0.02	0.21	0.04
COc1cc2c(cc1OCCCCCOc1cc3c(cc1OC)C(=O)N1C=C(c4ccc(N5CCN(C[C@@H](O)CO)CC5)cc4)C[C@H]1CN3)N=C[C@@H]1CC3(CC3)CN1C2=O [2-31, (S)-8-((5-(((S)-2-(4-(4-((R)-2,3-Dihydroxypropyl)piperazin-1-yl)phenyl)-7-methoxy-5-oxo-5,10,11,11a-tetrahydro-1H-benzo[e]pyrrolo[1,2-a][1,4]diazepin-8-yl)oxy)pentyl)oxy)-7-methoxy-1,11a-dihydro-3H,5H-spiro[benzo[e]pyrrolo[1,2-a][1,4]diazepine-2,1′-cyclopropan]-5-one]	0.08	0.37	0.1
COc1cc2c(cc1OCCCCCOc1cc3c(cc1OC)C(=O)N1C=C(c4ccc(N5CCN(C(=O)CO)CC5)cc4)C[C@H]1CN3)N=C[C@@H]1CC3(CC3)CN1C2=O [2-32, (S)-8-((5-(((S)-2-(4-(4-(2-Hydroxyacetyl)piperazin-1-yl)phenyl)-7-methoxy-5-oxo-5,10,11,11a-tetrahydro-1H-benzo[e]pyrrolo[1,2-a][1,4]diazepin-8-yl)oxy)pentyl)oxy)-7-methoxy-1,11a-dihydro-3H,5H-spiro[benzo[e]pyrrolo[1,2-a][1,4]diazepine-2,1′-cyclopropan]-5-one]	0.09	0.78	0.13
COc1cc2c(cc1OCCCCCOc1cc3c(cc1OC)C(=O)N1C=C(c4ccc(N5CCN(C[C@H](O)CO)CC5)cc4)C[C@H]1CN3)N=C[C@@H]1CC3(CC3)CN1C2=O [2-33, (S)-8-((5-(((S)-2-(4-(4-((S)-2,3-Dihydroxypropyl)piperazin-1-yl)phenyl)-7-methoxy-5-oxo-5,10,11,11a-tetrahydro-1H-benzo[e]pyrrolo[1,2-a][1,4]diazepin-8-yl)oxy)pentyl)oxy)-7-methoxy-1,11a-dihydro-3H,5H-spiro[benzo[e]pyrrolo[1,2-a][1,4]diazepine-2,1′-cyclopropan]-5-one]	0.3	0.73	0.38
COc1cc2c(cc1OCCCCCOc1cc3c(cc1OC)C(=O)N1C=C(c4ccc(SCC5CC5)cc4)C[C@H]1CN3)N=C[C@@H]1CC3(CC3)CN1C2=O [2-34, (S)-8-((5-(((S)-2-(4-((Cyclopropylmethyl)thio)phenyl)-7-methoxy-5-oxo-5,10,11,11a-tetrahydro-1H-benzo[e]pyrrolo[1,2-a][1,4]diazepin-8-yl)oxy)pentyl)oxy)-7-methoxy-1,11a-dihydro-3H,5H-spiro[benzo[e]pyrrolo[1,2-a][1,4]diazepine-2,1′-cyclopropan]-5-one]	0.62	1.42	1.37
COc1cc2c(cc1OCCCCCOc1cc3c(cc1OC)C(=O)N1C=C(c4ccc(SC5CCC5)cc4)C[C@H]1CN3)N=C[C@@H]1CC3(CC3)CN1C2=O [2-35, (S)-8-((5-(((S)-2-(4-(Cyclobutylthio)phenyl)-7-methoxy-5-oxo-5,10,11,11a-tetrahydro-1H-benzo[e]pyrrolo[1,2-a][1,4]diazepin-8-yl)oxy)pentyl)oxy)-7-methoxy-1,11a-dihydro-3H,5H-spiro[benzo[e]pyrrolo[1,2-a][1,4]diazepine-2,1′-cyclopropan]-5-one]	0.84	1.7	2.73
COc1cc2c(cc1OCCCCCOc1cc3c(cc1OC1CC1)C(=O)N1CC4(CC4)C[C@H]1C=N3)NC[C@@H]1CC(c3ccc(C4CCOCC4)cc3)=CN1C2=O [2-39, (S)-7-Cyclopropoxy-8-((5-(((S)-7-methoxy-5-oxo-2-(4-(tetrahydro-2H-pyran-4-yl)phenyl)-5,10,11,11a-tetrahydro-1H-benzo[e]pyrrolo[1,2-a][1,4]diazepin-8-yl)oxy)pentyl)oxy)-1,11a-dihydro-3H,5H-spiro[benzo[e]pyrrolo[1,2-a][1,4]diazepine-2,1′-cyclopropan]-5-one]	0.39	0.58	0.84
